Experimental data reported in patent US6521594B1, “Method and composition for treating thrombosis” (La Jolla Cancer Research Foundation, priority 1990, dated 2003).
Like-named read-outs stand apart in the source and are kept apart here. Non-standard residues stand in square brackets, D forms with d. No end group written: not given here. *: point of attachment. Pmc = Cc1c(C)c(S(=O)(=O)*)c(C)c2c1OC(C)(C)CC2; Pen = CC(C)(S)[C@H](N)C(=O)O

Assays:
platelets [1] = target: T1, platelets (Homo sapiens, UniProt P05106+P08514); assay: Platelet aggregation assay (Examples XI.G and XII); type: cell-based; conditions: for reactivity in platelet aggregation relative to 8×: comparator 8×; for fold increase in potency over analogue 1: comparator analogue 1; for fold increase in platelet aggregation potency on substitution of Leu in analogue 5: comparator analogue 5
Method: Platelet aggregation was assessed using the method of Born, Nature 194:927-929 (1962), incorporated herein by reference. Briefly, the change in light transmission was measured through a stirred suspension of platelets in an aggregometer (Model 400 VS, Chrono-Log, Havertown, Pa., USA). Studies employing ADP were performed with platelet-rich plasma (PRP), which was obtained by low-speed centrifugation (200×g for 10 min.) of whole blood freshly drawn into trisodium citrate (at a final concentration of 11 mM). In studies using thrombin, the PRP was gel-filtered on Sepharose 2B in divalent ion-free Tyrode's solution containing 2% BSA. For all studies, the reference standard was platelet-poor plasma, which was obtained by centrifuging PRP at 1000×g for 5 min.
All aggregation studies were performed at 37° C. with a constantly stirred suspension of 3×10^8 platelets/mL. (Platelet count was determined with the aid of a hemacytometer.) Peptides and stimulants were added to these suspensions in 1% dilutions. The PRP and gel-filtered platelets were used within three hours from the time of blood collection.
The peptides described in this Example were synthesized according to the methods of Examples I and XI. Selectivity and potency were measured according to the methods of Examples II through XI. The peptide identification numbers used in this Example are consistent and relevant to this Example only. Some of the peptides are identified by other nomenclature elsewhere in this document.

platelets [2] = target: T1, platelets; type: cell-based; conditions: ADP 10 μm; citrated PRP; read-out: ADP-Stimulated Aggregation (IC50)
Method: Briefly, the change in light transmission was measured through a stirred suspension of platelets in an aggregometer (Model 400 VS, Chrono-Log, Havertown, Pa., USA). […] In studies using thrombin, the PRP was gel-filtered on Sepharose 2B in divalent ion-free Tyrode's solution containing 2% BSA. For all studies, the reference standard was platelet-poor plasma, which was obtained by centrifuging PRP at 1000×g for 5 min.
(§1) All aggregation studies were performed at 37° C. with a constantly stirred suspension of 3×10^8 platelets/ml. (Platelet count was determined with the aid of a hemacytometer.) Peptides and stimulants were added to these suspensions in 1% dilutions. The PRP and gel-filtered platelets were used within three hours from the time of blood collection.
(§2) Peptide anti-aggregation potencies were determined from dose-responsive curves for the inhibition of the maximum aggregation responses stimulated by physiologic doses of ADP (10 μm) and thrombin (2 U/ml).

αvβ5 = αvβ5 ELISA IC50 (μM)
Description: Table printed on a drawing sheet, FIG. 23
Title: Modification of Ac-CNPRGD(Y-OMe)RC-NH2
Head of the field: αvβ5 ELISA IC50 (μM)
First copying reader's note: Underlining in the printed sequences marks the cyclised part (C to C); the footnote for the raised a on 'Peptide' is not printed on the sheet.
Where the first naming reader finds the target: head: αvβ5 ELISA IC50 (μM)

platelets [3] = target: T1, platelets; assay: Thrombin-stimulated platelet aggregation (gel-filtered platelets); type: cell-based; conditions: thrombin 2 U/ml
Method: as §1, §2

T1 sequence (P08514 32-1039): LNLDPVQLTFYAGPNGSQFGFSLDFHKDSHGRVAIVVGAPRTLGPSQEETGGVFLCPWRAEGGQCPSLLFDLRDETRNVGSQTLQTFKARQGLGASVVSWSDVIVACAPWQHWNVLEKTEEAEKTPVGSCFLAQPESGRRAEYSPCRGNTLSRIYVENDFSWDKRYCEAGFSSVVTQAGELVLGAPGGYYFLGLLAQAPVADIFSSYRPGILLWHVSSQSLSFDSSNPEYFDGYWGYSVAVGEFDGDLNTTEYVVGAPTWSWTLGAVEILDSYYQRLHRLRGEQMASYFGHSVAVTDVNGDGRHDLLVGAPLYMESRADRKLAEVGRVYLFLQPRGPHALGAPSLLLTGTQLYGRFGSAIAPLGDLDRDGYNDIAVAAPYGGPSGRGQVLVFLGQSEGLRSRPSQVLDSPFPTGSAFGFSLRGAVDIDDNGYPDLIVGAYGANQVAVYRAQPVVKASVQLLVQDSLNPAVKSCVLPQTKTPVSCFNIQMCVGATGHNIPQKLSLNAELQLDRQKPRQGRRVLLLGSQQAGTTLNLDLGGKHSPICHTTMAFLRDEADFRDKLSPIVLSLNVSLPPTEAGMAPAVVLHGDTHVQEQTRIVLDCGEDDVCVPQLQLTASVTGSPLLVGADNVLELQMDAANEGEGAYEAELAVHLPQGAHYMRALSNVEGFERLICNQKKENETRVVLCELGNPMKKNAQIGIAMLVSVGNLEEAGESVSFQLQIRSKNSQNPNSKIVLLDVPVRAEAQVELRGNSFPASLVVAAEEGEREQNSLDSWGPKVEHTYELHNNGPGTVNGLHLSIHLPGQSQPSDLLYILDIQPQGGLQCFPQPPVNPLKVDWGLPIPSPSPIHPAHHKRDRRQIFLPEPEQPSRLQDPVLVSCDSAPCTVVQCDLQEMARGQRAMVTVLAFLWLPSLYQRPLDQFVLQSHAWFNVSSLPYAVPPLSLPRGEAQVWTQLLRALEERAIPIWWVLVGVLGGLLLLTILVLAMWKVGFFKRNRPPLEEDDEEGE
T1 sequence (P05106 27-788): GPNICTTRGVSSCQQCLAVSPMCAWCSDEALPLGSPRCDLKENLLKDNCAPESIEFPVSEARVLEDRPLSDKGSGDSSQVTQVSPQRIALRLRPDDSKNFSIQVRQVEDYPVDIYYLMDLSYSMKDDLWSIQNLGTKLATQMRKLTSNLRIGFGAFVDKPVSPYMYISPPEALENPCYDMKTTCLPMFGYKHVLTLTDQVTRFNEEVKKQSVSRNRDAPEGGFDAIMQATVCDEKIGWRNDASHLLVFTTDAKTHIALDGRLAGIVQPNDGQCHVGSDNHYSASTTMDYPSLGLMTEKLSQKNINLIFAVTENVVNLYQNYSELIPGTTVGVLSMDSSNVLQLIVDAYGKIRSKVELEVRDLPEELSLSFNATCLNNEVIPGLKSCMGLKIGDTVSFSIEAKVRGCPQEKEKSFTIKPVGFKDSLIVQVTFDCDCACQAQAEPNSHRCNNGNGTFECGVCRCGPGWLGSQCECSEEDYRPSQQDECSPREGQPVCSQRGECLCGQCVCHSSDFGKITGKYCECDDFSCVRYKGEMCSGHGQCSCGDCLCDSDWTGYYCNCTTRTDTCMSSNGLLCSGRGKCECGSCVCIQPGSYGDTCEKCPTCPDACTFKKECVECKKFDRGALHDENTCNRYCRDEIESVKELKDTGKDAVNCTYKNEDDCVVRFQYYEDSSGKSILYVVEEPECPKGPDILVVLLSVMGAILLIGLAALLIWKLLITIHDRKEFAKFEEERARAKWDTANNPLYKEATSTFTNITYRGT

For (Mpr)RGD(O-Me-Y)RC-NH2 [16A], the “reactivity in platelet aggregation relative to 8×” value (platelets [1]) was “about two-fold”.

(Pmp)GHRGDLRCA was tested, and the “fold increase in potency over analogue 1” value (platelets [1]) was 2 fold.

With (t-but-am-Pmp)GHRGDLR(Pen)A the IC50 (platelets [2]) was 89 µM.

For “Ac-CNPRGD(O-N-Butyl-Y)RC-NH2 [analogue 34]”, the “fold increase in potency over analogue 1” value (platelets [1]) was “about 150 fold”.

With Ac-CNPRGD(Y-OMe)(Cit)C-NH2 [11S] the IC50 (αvβ5) was 3.46 µM.

Ac-CNPRGD(Y-OMe)(dR)C-NH2 [11L] was tested, and the “platelet aggregation potency compared with analogue 32” value (platelets [1]; comparator analogue 32) was “decrease in potency”.

With Ac-CNPRGD(Y-OMe)AC-NH2 [11K] the IC50 (αvβ5) was 8.85 µM.

Work on Ac-CNPRGD(Y-OMe)EC-NH2 [11J] yielded an IC50 (αvβ5) of 9.47 µM.

Substance “Ac-CNPRGD(Y-OMe)KC-NH2 [11R] [listing 1 of 2 here]” has an IC50 (αvβ5) of 5.82 µM.

In the case of “Ac-CNPRGD(Y-OMe)KC-NH2 [11R] [listing 2 of 2 here]”, the “retained inhibitory activity versus analogue 32” value (platelets [1]; comparator analogue 32) is reported as 20%.

Substance Ac-CNPRGD(Y-OMe)LC-NH2 [compound 47] has an IC50 (αvβ5) of 7.14 µM.

For Ac-CNPRGD(Y-OMe)OC-NH2 [11P], the IC50 (αvβ5) was 7.7 µM.

In the case of AcCIPRGDY-OMeRCNH2 [10R], the “fold increase in platelet aggregation potency versus analogue 26” value (platelets [1]; comparator analogue 26) is reported as 3-4 fold.

In the case of G(Pen)FRGDSFCA, the IC50 (platelets [2]) is reported as less than 200 µM.

G(Pen)GHRGDTRCA showed an IC50 (platelets [3]) of 17 µM and an IC50 (platelets [2]) of 11.3 µM.

In the case of G(Pen)GRGDRPCA, the IC50 (platelets [2]) is reported as 22.3 µM.

G(Pen)GRGDTPCA showed an IC50 (platelets [2]) of 22.3 µM.

G(Pen)LRGDSPCA gave an IC50 (platelets [3]) of 308 µM and an IC50 (platelets [2]) of 415 µM.

G(Pen)LRGDSRCA gave an IC50 (platelets [3]) of 49 µM and an IC50 (platelets [2]) of 41 µM.

G(Pen)LRGDTPCA was tested, and the IC50 (platelets [2]) was 86 µM.

With GNPRGD(O-Me-Y)RD-NH2 [20Q] the “potency relative to 17J” value (platelets [1]; comparator 17J) was “about three times” and the “potency relative to 18J” value (platelets [1]; comparator 18J) was “about 20 times”.

“G[Pen]GRGDSFCA (cysteine pairing not given here)” showed an IC50 (platelets [2]) of 115 µM.

Substance L(Pen)GHRGDLRCA has an IC50 (platelets [2]) of 10.5 µM.

In the case of R2(Pen)GRGDTPCA, the IC50 (platelets [3]) is reported as 2.7 µM and the IC50 (platelets [2]) is reported as 8.2 µM.

Work on R(Pen)GRGDTPCA yielded an IC50 (platelets [2]) of 7 µM.

R(Pen)GRGDTPCR gave an IC50 (platelets [3]) of 2 µM.

R(Pmc)GHRGDFRCR was tested, and the IC50 (platelets [2]) was 0.62 µM and the “fold increase in platelet aggregation potency on substitution of Leu in analogue 5” value (platelets [1]) was roughly 5 fold.

R(Pmc)GHRGDVRCR was tested, and the IC50 (platelets [2]) was 0.69 µM and the “fold increase in platelet aggregation potency on substitution of Leu in analogue 5” value (platelets [1]) was 4 fold.

Substance R(Pmc)GHRGDYRCR has an IC50 (platelets [2]) of 1 µM.

R(Tmc)GHRGDLRCR [analogue 7] was tested, and the “fold more potent than analogue 3 in the aggregation assay” value (platelets [1]; comparator analogue 3) was 2 fold.

For RGD(O-Me-Y)RE-NH2 [21I], the “reactivity in platelet aggregation relative to 8×” value (platelets [1]) was “about three-fold”.
